Source: publication PMC12637021, “Talin–tensin3 interactions regulate fibrillar adhesion formation and tensin3 phase separation” (The Journal of Cell Biology, 2025)

B1: endogenous tensin3: endogenous tensin3 in primary human foreskin fibroblasts (protein, UniProt Q68CZ2 1-1445, looked up)
Tensin-3: MEEGHGLDLTYITERIIAVSFPAGCSEESYLHNLQEVTRMLKSKHGDNYLVLNLSEKRYDLTKLNPKIMDVGWPELHAPPLDKMCTICKAQESWLNSNLQHVVVIHCRGGKGRIGVVISSYMHFTNVSASADQALDRFAMKKFYDDKVSALMQPSQKRYVQFLSGLLSGSVKMNASPLFLHFVILHGTPNFDTGGVCRPFLKLYQAMQPVYTSGIYNVGPENPSRICIVIEPAQLLKGDVMVKCYHKKYRSATRDVIFRLQFHTGAVQGYGLVFGKEDLDNASKDDRFPDYGKVELVFSATPEKIQGSEHLYNDHGVIVDYNTTDPLIRWDSYENLSADGEVLHTQGPVDGSLYAKVRKKSSSDPGIPGGPQAIPATNSPDHSDHTLSVSSDSGHSTASARTDKTEERLAPGTRRGLSAQEKAELDQLLSGFGLEDPGSSLKEMTDARSKYSGTRHVVPAQVHVNGDAALKDRETDILDDEMPHHDLHSVDSLGTLSSSEGPQSAHLGPFTCHKSSQNSLLSDGFGSNVGEDPQGTLVPDLGLGMDGPYERERTFGSREPKQPQPLLRKPSVSAQMQAYGQSSYSTQTWVRQQQMVVAHQYSFAPDGEARLVSRCPADNPGLVQAQPRVPLTPTRGTSSRVAVQRGVGSGPHPPDTQQPSPSKAFKPRFPGDQVVNGAGPELSTGPSPGSPTLDIDQSIEQLNRLILELDPTFEPIPTHMNALGSQANGSVSPDSVGGGLRASSRLPDTGEGPSRATGRQGSSAEQPLGGRLRKLSLGQYDNDAGGQLPFSKCAWGKAGVDYAPNLPPFPSPADVKETMTPGYPQDLDIIDGRILSSKESMCSTPAFPVSPETPYVKTALRHPPFSPPEPPLSSPASQHKGGREPRSCPETLTHAVGMSESPIGPKSTMLRADASSTPSFQQAFASSCTISSNGPGQRRESSSSAERQWVESSPKPMVSLLGSGRPTGSPLSAEFSGTRKDSPVLSCFPPSELQAPFHSHELSLAEPPDSLAPPSSQAFLGFGTAPVGSGLPPEEDLGALLANSHGASPTPSIPLTATGAADNGFLSHNFLTVAPGHSSHHSPGLQGQGVTLPGQPPLPEKKRASEGDRSLGSVSPSSSGFSSPHSGSTISIPFPNVLPDFSKASEAASPLPDSPGDKLVIVKFVQDTSKFWYKADISREQAIAMLKDKEPGSFIVRDSHSFRGAYGLAMKVATPPPSVLQLNKKAGDLANELVRHFLIECTPKGVRLKGCSNEPYFGSLTALVCQHSITPLALPCKLLIPERDPLEEIAESSPQTAANSAAELLKQGAACNVWYLNSVEMESLTGHQAIQKALSITLVQEPPPVSTVVHFKVSAQGITLTDNQRKLFFRRHYPVNSVIFCALDPQDRKWIKDGPSSKVFGFVARKQGSATDNVCHLFAEHDPEQPASAIVNFVSKVMIGSPKKV

How the values were obtained:
[1] = tested on: tensin3 IDR (mCh-IDR); assay: mitochondrial pulldown, talin constructs with mCh-IDR; assay type: binding, Homo sapiens; conditions: TLN1-E1770A-cBAK vs TLN1-WT-cBAK; HEK293T; three replicates
Protocol: Mitochondrial isolation from HEK293T cells was performed after 24 h of transient expression using a combined method of Qproteome Mitochondria Isolation Kit (QIAGEN) and MACS Mitochondria Isolation Kit (Miltenyi). Cells were collected in ice-cold PBS and aliquoted for the preparation of the whole-cell lysate (wcl) fraction (30%) and the mitochondrial fraction (70%). Cell lysis and homogenization of the mitochondrial fraction were performed according to the manufacturer’s instructions (QIAGEN). Magnetic anti-TOM22 microbeads (Miltenyi) were used to label mitochondria in the homogenized mitochondrial fraction for 1 h at 4°C. The labeled mitochondria were separated from a magnetic column before elution with ice-cold separation buffer (Miltenyi). The eluted mitochondria were washed and centrifuged according to the Miltenyi’s instructions. RIPA buffer (ChromoTek) was used for protein extraction from the wcl and purified mitochondria. Samples were stored at −80°C prior to western blotting.
Samples were mixed with sample buffer (4X, Invitrogen) supplemented with reducing agent (10X, Invitrogen). […] Signals were detected using goat anti-mouse IgG conjugated to IRDye 680RD (1:15,000, ab216776; Abcam) and goat anti-rabbit IgG conjugated to IRDye 800CW (1:15000, ab216773; Abcam) secondary antibodies. […] Western blot analysis and quantification were performed using ImageJ software.

[2] = tested on: HFF cells; assay: endogenous tensin3 condensates on soft vs stiff PDMS, HFF cells; assay type: cell-based, human; conditions: 1.5 kPa vs 28 kPa FN-coated PDMS, overnight; n = 33 and 40 cells
Protocol: Imaging dishes equipped with 40 µm-thick PDMS substrates (1.5 and 28 kPa) were purchased from ibidi. PDMS dishes were coated with 30 μg/ml FN for 1 h, followed by three washes with PBS. Dishes were incubated with DMEM for 10 min to equilibrate before cells were plated and incubated overnight at 37°C.
To establish a correlation between tensin3 expression and condensation formation, a maximum intensity Z-projection was performed on Z-stack images of NIH3T3 cells (step depth 0.2 μm). The integrated fluorescence intensity was measured by normalizing the mean pixel intensity of each cell to the average of all values in cells expressing mCh-TNS3. To measure the condensate coverage in NIH3T3 cells, the images were background-subtracted (rolling ball) and then thresholded. This was followed by the Analyse Particles function in FIJI/ImageJ to select round condensate structures (circularity 0.7–1.0) ([Bussi et al., 2023]; [Dumelie et al., 2024]) with a size larger than 0.1 μm^2. The same settings were applied to quantify the number of condensates in NIH3T3 and HFF cells.

Molecule | increase in IDR pulldown vs WT talin [1] [%] | increase in tensin3 spheres on soft vs stiff substrate [2] [fold]
TLN1-E1770A-cBAK: constitutively active talin1 construct | 50 | 
B1 |  | 3.6
